# Measured values: patent US20090123389A1, “Methods for modulating Th17 cell development in the treatment and prevention of cellulite” (priority 2007, published 2009)
# How the values were obtained:
# [1] = system: Jurkat T cells; assay: Apoptosis of Jurkat T cells (Annexin V / PI, flow cytometry); format: cell-based; details: 100 nM HF, cultured for 30 hours
# Procedure: The non-specific cytoxicity of HF in both normal and transformed T-cells at high doses was evaluated. Anti-CD3/anti-CD28 activated primary T cells were harvested 6 days after activation and cultured in the presence of IL-2 with or without HF (100 nM). As a positive control, some T cells were cultured without IL-2 to induce apoptosis (FIG. 3A). Jurkat T cells, a transformed T cell leukemia line, were cultured in complete medium with or without HF (100 nM) as indicated (FIG. 3B). Both primary and Jurkat T cells were cultured for 30 hours and programmed cell death, i.e. apoptosis, was determined by Annexin V staining and propidium iodide (PI) uptake and cells were analyzed by flow cytometry. The percent of apoptotic T cells at each time point was plotted and was defined as Annexin V^+ PI^−. […] In further experiments, titrating amounts of HF were added to primary T cells and apoptosis was determine as above at the indicated time points. At 100 nM HF, but not 30 nM or lower, generalized T-cell apoptosis was observed (FIG. 3C).
# [2] = system: B220+ B cells or CD8+ T cells; assay: B cell and CD8+ T cell proliferation and function; format: cell-based, mouse; details: HF 1.25-40 nM titrated
# Procedure: The non-specific effects of HF on B and CD8+ T cells were evaluated. B220+B cells or CD8+ T cells were isolated from the spleen and peripheral lymph nodes of C57B/6 mice. B cell proliferation and IL-6 production was induced by culturing the cells with LPS (0.5 μg/ml) for 4 days. The effects of HF on B cell function was determined by adding titrating amounts of HF (1.25 nM-40 nM) at the time of LPS stimulation. B cell proliferation was monitored by labeling cells with Carboxyfluorescein diacetate, succinimidyl ester (CFSE; 5 μM) prior to LPS stimulation and determining the rate of CFSE dilution after 4 days by flow cytometric analyses. LPS-induced IL-6 production by B cells was determined by intracellular staining on day 4, following PMA+Ionomycin+Brefeldin A re-stimulation as described above. For CD8+ T cell experiments, purified CD8+ T cells were labeled with CFSE as above and the T cells were activated using anti-CD3 (1 μg/ml) and anti-CD28 (1 μg/ml) antibodies. […] CD8+ T cell proliferation was determined by monitoring CFSE dilution on day 3-post activation; CD25 expression was determined by FACS staining on day 2 of culture; differentiation of CD8+ T cells into cytolytic T cells (CTL) was evaluated on day 4 by determining expression of IFNγ and granzyme B following PMA+Ionomycin+Brefeldin A re-stimulation. […]
structure (smiles),measurement,setting,value
"O=C(CC1NCCCC1O)Cn1cnc2cc(Br)c(Cl)cc2c1=O (racemic) [HF, 7-bromo-6-chloro-3-[3-(3-hydroxy-2-piperidinyl)-2-oxopropyl]-4(3H)-quinazolinone]",apoptosis of Jurkat T cells,[1],significant apoptosis
same,doses at which B and CD8+ T cell proliferation and function were profoundly impaired,[2],greater than 20 nM
same,doses with little or no effect on B and CD8+ T cell function or proliferation,[2],lower than 10 nM
